Data reported in patent US10766869B2, “Triazoles for the treatment of demyelinating dieases” (Vertex Pharmaceuticals Incorporated, priority 2015, dated 2020).
Like-named read-outs stand apart in the source and are kept apart here.

Test system: primary rat mixed cortical cells
Assay: In vitro myelination assay (MBP positive myelin strands, fold myelin pixels above background)
Format: cell-based
Conditions: Rattus norvegicus; for fold induction at 1 µM: 1.0 μM compound; for fold induction at 10 µM: 10.0 μM compound
Description: In Vitro Myelination Assay
Compounds were screened for their ability to induce myelination using a primary rat mixed cortical cell culture assay, which contains neurons, oligodendrocyte precursor cells, oligodendrocytes, astrocytes and microglia. The assay quantifies myelination by measuring myelin basic protein (MBP) immunofluorescent positive myelin strands from images taken using a Cellomics Array Scan (model Arrayscan VTI HCS Reader) or a Molecular Devices Image Xpress (model IXM XL) high content imager. The myelin strands were quantitated using a custom created myelin detection software program. Test compounds were dissolved in DMSO to make a 10 mM initial stock solution. Dilutions were made in myelination medium to obtain the final solutions for the assay and were tested in primary rat mixed cortical cells at selected doses.
Primary rat mixed cortical cells were prepared from harvested cerebral cortices from postnatal day 1 (P1) rats (P1 Rat CD® IGS pups) were purchased from Charles River) in Complete Dissociation Medium, wherein the meninges were removed and the cortical tissue chopped with a razor blade into ˜1 mm^3 pieces. Tissue from 1-3 pups was collected and placed into 15 ml conical tubes in a total volume of 5 ml of Complete Dissociation Medium. Activated papain (3 ml) was added to each 15 ml conical tube and tissue was incubated at 37° C. for 30 minutes. After the 30 minute incubation, DNase (Sigma D4527; 75 μl of a 1 mg/ml stock) was added to each tube, followed by mechanical trituration using a 2 ml serological pipette and autopipettor to gently dissociate the tissue. Following trituration, larger tissue pieces were allowed to settle by gravity, and the supernatant containing dissociated cells was transferred to a 50 ml conical tube with 4 ml of trypsin inhibitor. Cells were pelleted by centrifugation, resuspended in myelination medium and filtered through a 40 μm filter. Cells were then seeded in 96-well plates (BD Biosciences, Black, PDL-coated, Cat. No. 356640) at 87,500-95,000 cells/well in a final volume of 200 μl of Myelination Medium in the presence or absence of compound and cultured for 14 days in a humidified 37° C. incubator with 5% CO2. Half the medium was removed and replaced with fresh medium containing 1× compound on days 6 and 10. Using a Biotek automatic plate washer (model Biomek® FXP Laboratory Automation Workstation), cells were fixed with 4% paraformaldehyde on day 14, washed with PBS and blocked in 5% normal goat serum (Vector Laboratories, S-1000) in 0.1% PBS-TritonX-100 (PBST) for 1 hour. Cells were stained with 1:500 anti-MBP (Covance, cat # SMI99) primary antibody in 1% normal goat serum in 0.1% PBST for 2 hours at room temperature followed by 2 washes with PBST. A final incubation in secondary antibody (1:1000, Invitrogen, Alexa-488 anti-mouse IgG2b) and 1:10,000 Hoechst dye in 1% normal goat serum in 0.1% PBST was performed for 2 hours at room temperature. Plates were washed with PBS and then scanned on a Cellomics Array Scan using a 10× objective (25 images per well) or the Image Xpress using a 10× objective (9 image per well). Images were analyzed using Vertex myelin detection software (described below) to quantify total MBP myelin pixels per well. Fold myelin pixels above background at two concentrations (1.0 μM and 10.0 μM) relative to baseline of no added compound are reported below in Table 4. Standard deviation for each compound concentration was calculated using all replicates and using a standard deviation formula commonly used in the art.
One of skill in the art would recognize that for this type of primary neuronal mixed cell assay variability between different assay runs is to be expected even though the protocol is the same for each assay run. For instance, variability may be due to small differences in cell viability, cell density, age of the animals, etc.
Vertex Myelin Detection Software: […]

[1] = read-out: Fold myelin pixels above background relative to baseline of no added compound
[2] = relative to baseline of no added compound, read-out: Fold myelin pixels above background, 1.0 μM
[3] = relative to baseline of no added compound, read-out: Fold myelin pixels above background, 10.0 μM
[4] = relative to baseline of no added compound, read-out: Fold myelin pixels above background

Compound `Cc1cc(Nc2ncn(-c3cc(F)cc(F)c3)n2)cc(N2CCC(N3CCCC(O)C3)CC2)c1` (stereo not shown) [Compound 1054, 1-[1-[3-[[1-(3,5-difluorophenyl)-1,2,4-triazol-3-yl]amino]-5-methyl-phenyl]-4-piperidyl]piperidin-3-ol] has a fold induction at 1 µM [1] of no more than 1 and a fold induction at 10 µM [1] of no more than 1.

Compound `Fc1ccc(-n2cnc(Nc3cc(C4CC4)nc(N4CCCCC4)c3)n2)cc1F` [Compound 327, 2-cyclopropyl-N-[1-(3,4-difluorophenyl)-1,2,4-triazol-3-yl]-6-(1-piperidyl)pyridin-4-amine] has a fold induction at 1 µM [2] of 100 to 1000 and a fold induction at 10 µM [3] of 100 to 1000.

In the case of `Cc1cc(Nc2ncn(-c3cc(F)cc(F)c3)n2)cc(NC2CCOC3(CCOC3)C2)c1` (stereo not shown) [Compound 1048, N3-[1-(3,5-difluorophenyl)-1,2,4-triazol-3-yl]-N1-(2,6-dioxaspiro[4.5]decan-9-yl)-5-methyl-benzene-1,3-diamine], the fold induction at 1 µM [1] is reported as 10 to 100 and the fold induction at 10 µM [1] is reported as no more than 1.

`Cc1cc(NCC2(N3CCOCC3)CC2)cc(Nc2ncn(-c3cc(F)cc(F)c3)n2)c1` [Compound 951, N1-[1-(3,5-difluorophenyl)-1,2,4-triazol-3-yl]-5-methyl-N3-[(1-morpholinocyclopropyl)methyl]benzene-1,3-diamine] was tested, and the fold induction at 1 µM [1] was 1 to 10 and the fold induction at 10 µM [1] was no more than 1.

With `Cc1cc(Nc2ncn(-c3ccccc3)n2)cc(N2C[C@@H]3C[C@H]2CN3C2COC2)c1` [Compound 219, N-[3-methyl-5-[(1S,4S)-2-(oxetan-3-yl)-2,5-diazabicyclo[2.2.1]heptan-5-yl]phenyl]-1-phenyl-1,2,4-triazol-3-amine] the fold induction at 1 µM [2] was 100 to 1000 and the fold induction at 10 µM [3] was 1 to 10.

`COCC1CCN(c2cc(C)cc(Nc3ncn(-c4ccccn4)n3)c2)CC1` [Compound 211, N-[3-[4-(methoxymethyl)-1-piperidyl]-5-methyl-phenyl]-1-(2-pyridyl)-1,2,4-triazol-3-amine] showed a fold induction at 1 µM [2] of 10 to 100 and a fold induction at 10 µM [3] of 100 to 1000.

Work on `Cc1cc(Nc2ncn(-c3cc(F)cc(F)c3)n2)cc(N2CCN3CC(F)(F)C[C@H]3C2)c1` [Compound 831, N-[3-[(8aS)-7,7-difluoro-13,4,6,8,8a-hexahydropyrrolo[1,2-a]pyrazin-2-yl]-5-methyl-phenyl]-1-(3,5-difluorophenyl)-1,2,4-triazol-3-amine] yielded a fold induction at 1 µM [1] of 10 to 100 and a fold induction at 10 µM [1] of 10 to 100.

`Cc1cc(Nc2ncn(-c3ccnc(O)c3)n2)cc(N2CCOCC2)c1` [Compound 155, 4-[3-(3-methyl-5-morpholino-anilino)-1,2,4-triazol-1-yl]pyridin-2-ol] was tested, and the fold induction at 1 µM [2] was 100 to 1000 and the fold induction at 10 µM [3] was 100 to 1000.

For `Cc1cc(Nc2ncn(-c3cccc(F)c3)n2)cc(C2CCCN(C3COC3)C2)c1` (stereo not shown) [Compound 411, 1-(3-fluorophenyl)-N-[3-methyl-5-[1-(oxetan-3-yl)-3-piperidyl]phenyl]-1,2,4-triazol-3-amine], the fold induction at 1 µM [4] was 100 to 1000 and the fold induction at 10 µM [4] was no more than 1.

In the case of `N#Cc1cc(Nc2ncn(-c3cc(F)cc(F)c3)n2)nc(N2CCN(C3COC3)CC2)c1` [Compound 853, 2-[[1-(3,5-difluorophenyl)-1,2,4-triazol-3-yl]amino]-6-[4-(oxetan-3-yl)piperazin-1-yl]pyridine-4-carbonitrile], the fold induction at 1 µM [1] is reported as 1 to 10 and the fold induction at 10 µM [1] is reported as 10 to 100.

`CCOC1CCN(c2cc(C)cc(Nc3ncn(-c4cc(F)cc(F)c4)n3)c2)CC1` [Compound 976, 1-(3,5-difluorophenyl)-N-[3-(4-ethoxy-1-piperidyl)-5-methyl-phenyl]-1,2,4-triazol-3-amine] gave a fold induction at 1 µM [1] of 1 to 10 and a fold induction at 10 µM [1] of 10 to 100.

With `CC(=O)N1CCN(c2cc(C)cc(Nc3ncn(-c4cc(F)cc(F)c4)n3)c2)CC1` [Compound 370, 1-[4-[3-[[1-(3,5-difluorophenyl)-1,2,4-triazol-3-yl]amino]-5-methyl-phenyl]piperazin-1-yl]ethanone] the fold induction at 1 µM [2] was 1000 to 10000 and the fold induction at 10 µM [3] was 100 to 1000.

`COCC1CCN(c2cc(C(F)F)cc(Nc3ncn(-c4cccc(C(F)F)c4)n3)n2)CC1` [Compound 645, 4-(difluoromethyl)-N-[1-[3-(difluoromethyl)phenyl]-1,2,4-triazol-3-yl]-6-[4-(methoxymethyl)-1-piperidyl]pyridin-2-amine] was tested, and the fold induction at 1 µM [4] was 1 to 10 and the fold induction at 10 µM [4] was 10 to 100.

`Cc1cc(Nc2ncn(-c3cc(F)cc(F)c3)n2)nc(N2CCN([C@H]3CCOC3)CC2)c1` (single isomer, unassigned) [Compound 673] showed a fold induction at 1 µM [4] of 10 to 100 and a fold induction at 10 µM [4] of 100 to 1000.

`Cc1cc(Nc2ncn(-c3cc(F)cc(F)c3)n2)cc(N2CCCC(N3CCOCC3)C2)c1` (stereo not shown) [Compound 911, 1-(3,5-difluorophenyl)-N-[3-methyl-5-(3-morpholino-1-piperidyl)phenyl]-1,2,4-triazol-3-amine] was tested, and the fold induction at 1 µM [1] was 1 to 10 and the fold induction at 10 µM [1] was 1 to 10.

`Cc1cc(Nc2ncn(-c3ccc(F)cc3)n2)cc(N2CCN(C3(C)COC3)CC2)c1` [Compound 695, 1-(4-fluorophenyl)-N-[3-methyl-5-[4-(3-methyloxetan-3-yl)piperazin-1-yl]phenyl]-1,2,4-triazol-3-amine] gave a fold induction at 1 µM [4] of 1 to 10 and a fold induction at 10 µM [4] of 1 to 10.

Compound `Cc1cc(Nc2ncn(-c3cc(F)cc(F)c3)n2)cc([C@]2(C)CN(C)C(=O)O2)c1` (single isomer, unassigned) [Compound 796] has a fold induction at 1 µM [1] of 10 to 100 and a fold induction at 10 µM [1] of no more than 1.

`Clc1cccc(-n2cnc(Nc3cc(C4CC4)cc(N4CCN(C5COC5)CC4)c3)n2)c1` [Compound 55, 1-(3-chlorophenyl)-N-[3-cyclopropyl-5-[4-(oxetan-3-yl)piperazin-1-yl]phenyl]-1,2,4-triazol-3-amine] gave a fold induction at 1 µM [2] of 100 to 1000 and a fold induction at 10 µM [3] of no more than 1.

`CCC(CN1CCOCC1)Nc1cc(C)cc(Nc2ncn(-c3cc(F)cc(F)c3)n2)c1` (stereo not shown) [Compound 960, N3-[1-(3,5-difluorophenyl)-1,2,4-triazol-3-yl]-5-methyl-N1-[1-(morpholinomethyl)propyl]benzene-1,3-diamine] gave a fold induction at 1 µM [1] of 1 to 10 and a fold induction at 10 µM [1] of no more than 1.

`COCc1ccccc1-n1cnc(Nc2cc(C)cc(N3CCN(C4COC4)CC3)c2)n1` [Compound 233, 1-[2-(methoxymethyl)phenyl]-N-[3-methyl-5-[4-(oxetan-3-yl)piperazin-1-yl]phenyl]-1,2,4-triazol-3-amine] gave a fold induction at 1 µM [2] of no more than 1 and a fold induction at 10 µM [3] of no more than 1.

For `CCOc1nccc(-n2cnc(Nc3cc(C)cc(N4CCN(C5COC5)CC4)c3)n2)n1` [Compound 204, 1-(2-ethoxypyrimidin-4-yl)-N-[3-methyl-5-[4-(oxetan-3-yl)piperazin-1-yl]phenyl]-1,2,4-triazol-3-amine], the fold induction at 1 µM [2] was no more than 1 and the fold induction at 10 µM [3] was no more than 1.

In the case of `Cc1cc(Nc2ncn(-c3cc(F)cc(F)c3)n2)cc(N2CCC3(CCOC3)CC2)c1` [Compound 814, 1-(3,5-difluorophenyl)-N-[3-methyl-5-(2-oxa-8-azaspiro[4.5]decan-8-yl)phenyl]-1,2,4-triazol-3-amine], the fold induction at 1 µM [1] is reported as 10 to 100 and the fold induction at 10 µM [1] is reported as 1 to 10.

`Cc1cc(Nc2ncn(-c3cccc(C(F)F)c3)n2)nc(N2CCN(C3COC3)CC2)c1` [Compound 848, N-[1-[3-(difluoromethyl)phenyl]-1,2,4-triazol-3-yl]-4-methyl-6-[4-(oxetan-3-yl)piperazin-1-yl]pyridin-2-amine] was tested, and the fold induction at 1 µM [1] was 10 to 100 and the fold induction at 10 µM [1] was 10 to 100.
